Assay results: patent publication US20260242391A1 (priority 2023, published 2026)

Tests used:
HL-60 = HL-60 differentiation potency; type: cell-based; conditions: Homo sapiens
in vitro = conditions: human

Row | Structure (SMILES) | EC50 (HL-60) [µM] | IC50 (in vitro) [µM] | IC50 (in vitro; HL-60 cells) [µM]
1 | C[C@H]1[C@@H](OC[C@H]2CC[C@@H](C(=O)NC(C(=O)O)C3CCC3)CC2)O[C@@H]2O[C@@]3(C)CC[C@H]4[C@H](C)CC[C@@H]1[C@@]24OO3 (stereo partly drawn) [Compound 185, (S)-2-cyclobutyl-2-((1R,4R)-4-((((3R,5aS,6R,8aS, 9R,10S,12R, 12aR)-3,6,9-trimethyldeca-hydro-12H-3,12-epoxy[1,2]dioxepino[4,3-i]isochromen-10-yl)oxy)methyl)cyclohexane-1-carboxamido) acetic acid] | 0.0502 | > 20 | –
2 | C[C@H]1[C@@H](Oc2ccc(CC(=O)N[C@H]3C[C@@H](C(=O)O)C3)cc2)O[C@@H]2O[C@@]3(C)CC[C@H]4[C@H](C)CC[C@@H]1[C@@]24OO3 [Compound 292, (1R,3s)-3-(2-(4-(((3R,5aS,6R,8aS, 9R,10S,12R, 12aR)-3,6,9-trimethyldeca-hydro-12H-3,12-epoxy[1,2]dioxepino[4,3-i]isochromen-10-yl)oxy)phenyl)acetamido) cyclobutane-1-carboxylic acid] | 0.0429 | – | > 20
3 | C[C@H]1[C@@H](Oc2ccc(C(=O)N3[C@H](C(=O)O)C[C@@H]4CCC[C@@H]43)cc2)O[C@@H]2O[C@@]3(C)CC[C@H]4[C@H](C)CC[C@@H]1[C@@]24OO3 [Compound 207, (2S,3aS,6aS)-1-(4-(((3R,5aS,6R,8aS, 9R,10S,12R, 12aR)-3,6,9-trimethyldeca-hydro-12H-3,12-epoxy[1,2]dioxepino[4,3-i]isochromen-10-yl)oxy)benzoyl) octahydrocyclo penta[b]pyrrole-2-carboxylic acid] | 0.15 | 0.68 | –
4 | C[C@H]1[C@@H](Oc2ccc(CC(=O)N[C@H]3CC[C@@H](C(=O)O)C3)cc2)O[C@@H]2O[C@@]3(C)CC[C@H]4[C@H](C)CC[C@@H]1[C@@]24OO3 [Compound 239, (1R,3S)-3-(2-(4-(((3R,5aS,6R,8aS, 9R,10S,12R, 12aR)-3,6,9-trimethyldeca-hydro-12H-3,12-epoxy[1,2]dioxepino[4,3-i]isochromen-10-yl)oxy)phenyl)acetamido)cyclo-pentane-1-carboxylic acid] | 0.0219 | 16.2 | –
5 | C[C@H]1[C@@H](Oc2ccc(CC(=O)N[C@H]3CC[C@@H](C(=O)O)CC3)cc2)O[C@@H]2O[C@@]3(C)CC[C@H]4[C@H](C)CC[C@@H]1[C@@]24OO3 [Compound 308, (1R,4s)-4-(2-(4-(((3R,5aS,6R,8aS, 9R,10S,12R, 12aR)-3,6,9-trimethyldeca-hydro-12H-3,12-epoxy[1,2]dioxepino[4,3-i]isochromen-10-yl)oxy)phenyl)acetamido) cyclohexane-1-carboxylic acid] | 0.0121 | – | > 20
6 | C[C@H]1[C@@H](O[C@H]2CC[C@@H](C(=O)N[C@@H](CC(F)(F)F)C(=O)O)CC2)O[C@@H]2O[C@@]3(C)CC[C@H]4[C@H](C)CC[C@@H]1[C@@]24OO3 [Compound 237, (S)-4,4,4-trifluoro-2-((1R,4R)-4-(((3R,5aS,6R,8aS, 9R,10S,12R, 12aR)-3,6,9-trimethyldeca-hydro-12H-3,12-epoxy[1,2]dioxepino[4,3-i]isochromen-10-yl)oxy)cyclo-hexane-1-carboxamido) butanoic acid] | 7.26 | – | > 20
7 | C[C@H]1[C@@H](O[C@H]2CC[C@@H](C(=O)N[C@H]3C[C@@H](C(=O)O)C3)CC2)O[C@@H]2O[C@@]3(C)CC[C@H]4[C@H](C)CC[C@@H]1[C@@]24OO3 [Compound 228, (1S,3s)-3-((1R,4S)-4-(((3R,5aS,6R,8aS, 9R,10S,12R, 12aR)-3,6,9-trimethyldeca-hydro-12H-3,12-epoxy[1,2]dioxepino[4,3-i]isochromen-10-yl)oxy)cyclo-hexane-1-carboxamido) cyclobutane-1-carboxylic acid] | 9.2 | > 20 | –
8 | C[C@H]1[C@@H](OC[C@H]2CC[C@@H](C(=O)N[C@H]3C[C@@H](C(=O)O)C3)CC2)O[C@@H]2O[C@@]3(C)CC[C@H]4[C@H](C)CC[C@@H]1[C@@]24OO3 [Compound 241, (1S,3s)-3-((1R,4S)-4-((((3R,5aS,6R,8aS, 9R,10S,12R, 12aR)-3,6,9-trimethyldeca-hydro-12H-3,12-epoxy[1,2]dioxepino[4,3-i]isochromen-10-yl)oxy)methyl)cyclohexane-1-carboxamido) cyclobutane-1-carboxylic acid] | 0.214 | 18.8 | –
9 | C[C@H]1[C@@H](OCc2ccc(C(=O)N[C@H]3C[C@@H](C(=O)O)C3)cc2)O[C@@H]2O[C@@]3(C)CC[C@H]4[C@H](C)CC[C@@H]1[C@@]24OO3 [Compound 278, (1R,3s)-3-(4-((((3R,5aS,6R,8aS, 9R,10S,12R, 12aR)-3,6,9-trimethyldeca-hydro-12H-3,12-epoxy[1,2]dioxepino[4,3-i]isochromen-10-yl)oxy)methyl)benzamido) cyclobutane-1-carboxylic acid] | 0.354 | > 20 | –

The next lines start with results.

Row | EC50 (HL-60) [µM] | IC50 (in vitro) [µM] | Structure (SMILES) | IC50 (in vitro; HL-60 cells) [µM]
10 | 0.0286 | 0.7 | C[C@H]1[C@@H](Oc2ccc(C(C)(C)C(=O)O)cc2F)O[C@@H]2O[C@@]3(C)CC[C@H]4[C@H](C)CC[C@@H]1[C@@]24OO3 [Compound 270, 2-(3-fluoro-4-(((3R,5aS,6R,8aS, 9R,10S,12R, 12aR)-3,6,9-trimethyldeca-hydro-12H-3,12-epoxy[1,2]dioxepino[4,3-i]isochromen-10-yl)oxy)phenyl)-2-methyl-propanoic acid] | –
11 | 0.0624 | 4 | C[C@H]1[C@@H](Oc2cc(Cl)cc(CC(=O)O)c2)O[C@@H]2O[C@@]3(C)CC[C@H]4[C@H](C)CC[C@@H]1[C@@]24OO3 [Compound 186, 2-(3-chloro-5-(((3R,5aS,6R,8aS, 9R,10S,12R, 12aR)-3,6,9-trimethyldeca-hydro-12H-3,12-epoxy[1,2]dioxepino[4,3-i]isochromen-10-yl)oxy)phenyl) acetic acid] | –
12 | 0.0693 | 0.37 | C[C@H]1[C@@H](Oc2ccc3[nH]c(C(=O)O)cc3c2)O[C@@H]2O[C@@]3(C)CC[C@H]4[C@H](C)CC[C@@H]1[C@@]24OO3 [Compound 208, 5-(((3R,5aS,6R,8aS, 9R,10S,12R, 12aR)-3,6,9-trimethyldeca-hydro-12H-3,12-epoxy[1,2]dioxepino[4,3-i]isochromen-10-yl)oxy)-1H-indole-2-carboxylic acid] | –
13 | 0.0464 | > 20 | C[C@H]1[C@@H](Oc2ccc(CC(=O)NC34CC(C(=O)O)(C3)C4)cc2)O[C@@H]2O[C@@]3(C)CC[C@H]4[C@H](C)CC[C@@H]1[C@@]24OO3 [Compound 303, 3-(2-(4-(((3R,5aS,6R,8aS, 9R,10S,12R, 12aR)-3,6,9-trimethyldeca-hydro-12H-3,12-epoxy[1,2]dioxepino[4,3-i]isochromen-10-yl)oxy)phenyl)acetamido) bicyclo[1.1.1] pentane-1-carboxylic acid] | –
14 | 0.0127 | 4.82 | C[C@H]1[C@@H](Oc2ccc([C@H](C)C(=O)O)cc2F)O[C@@H]2O[C@@]3(C)CC[C@H]4[C@H](C)CC[C@@H]1[C@@]24OO3 [Compound 282, (S)-2-(3-fluoro-4-(((3R,5aS,6R,8aS, 9R,10S,12R, 12aR)-3,6,9-trimethyldeca-hydro-12H-3,12-epoxy[1,2]dioxepino[4,3-i]isochromen-10-yl)oxy)phenyl) propanoic acid] | –
15 | 0.0561 | 1.42 | C[C@H]1[C@@H](Oc2ccc(C(=O)N3CC[C@@H](C(=O)O)C3)cc2Cl)O[C@@H]2O[C@@]3(C)CC[C@H]4[C@H](C)CC[C@@H]1[C@@]24OO3 [Compound 247, (R)-1-(3-chloro-4-(((3R,5aS,6R,8aS, 9R,10S,12R, 12aR)-3,6,9-trimethyldeca-hydro-12H-3,12-epoxy[1,2]dioxepino[4,3-i]isochromen-10-yl)oxy)benzoyl) pyrrolidine-3-carboxylic acid] | –
16 | 3.83 | > 20 | C[C@H]1[C@@H](OC(C)(C)[C@H]2C[C@@H](C(=O)O)C2)O[C@@H]2O[C@@]3(C)CC[C@H]4[C@H](C)CC[C@@H]1[C@@]24OO3 [Compound 206, (1R,3s)-3-(2-(((3R,5aS,6R,8aS, 9R,10S,12R, 12aR)-3,6,9-trimethyldeca-hydro-12H-3,12-epoxy[1,2]dioxepino[4,3-i]isochromen-10-yl)oxy)propan-2-yl)cyclobutane-1-carboxylic acid] | –
17 | 0.412 | > 20 | CO[C@H](C)[C@H](NC(=O)c1ccc(O[C@H]2O[C@@H]3O[C@@]4(C)CC[C@H]5[C@H](C)CC[C@@H]([C@H]2C)[C@@]35OO4)cc1)C(=O)O [Compound 248, O-methyl-N-(4-(((3R,5aS,6R,8aS, 9R,10S,12R, 12aR)-3,6,9-trimethyldeca-hydro-12H-3,12-epoxy[1,2]dioxepino[4,3-i]isochromen-10-yl)oxy)benzoyl)-L-threonine] | –
18 | 0.0882 | 17.6 | C[C@H]1[C@@H](Oc2ccc(OCCC(=O)O)cc2)O[C@@H]2O[C@@]3(C)CC[C@H]4[C@H](C)CC[C@@H]1[C@@]24OO3 [Compound 250, 3-(4-(((3R,5aS,6R,8aS, 9R,10S,12R, 12aR)-3,6,9-trimethyldeca-hydro-12H-3,12-epoxy[1,2]dioxepino[4,3-i]isochromen-10-yl)oxy)phenoxy) propanoic acid] | –
19 | 0.0479 | 4 | C[C@H]1[C@@H](Oc2ccc(C(=O)N[C@H]3CCC(=O)NC3=O)cc2)O[C@@H]2O[C@@]3(C)CC[C@H]4[C@H](C)CC[C@@H]1[C@@]24OO3 [Compound 198, N-((S)-2,6-dioxopiperidin-3-yl)-4-(((3R,5aS,6R,8aS, 9R,10S,12R, 12aR)-3,6,9-trimethyldeca-hydro-12H-3,12-epoxy[1,2]dioxepino[4,3-i]isochromen-10-yl)oxy)benzamide] | –
20 | 0.0299 | 0.62 | C[C@H]1[C@@H](Oc2ccc(C(=O)N[C@H]3CC[C@@H](C(=O)O)C3)cc2Cl)O[C@@H]2O[C@@]3(C)CC[C@H]4[C@H](C)CC[C@@H]1[C@@]24OO3 [Compound 232, (1R,3S)-3-(3-chloro-4-(((3R,5aS,6R,8aS, 9R,10S,12R, 12aR)-3,6,9-trimethyldeca-hydro-12H-3,12-epoxy[1,2]dioxepino[4,3-i]isochromen-10-yl)oxy)benzamido)cyclo-pentane-1-carboxylic acid] | –
